Experimental data taken from patent US6740637B1, “Chlorophyll and bacteriochlorophyll derivatives, their preparation and pharmaceutical compositions comprising them” (priority 1998, dated 2004).

Legend:
[1] = system: Herpes simplex virus-1 (in infected Vero cells); assay: PDT of HSV-1 in infected Vero cells, plaque assay; type: cell-based, Herpes simplex virus type 1
Procedure: Vero cells (Kidney African Green Monkey cells) were grown in DMEM+F12 medium buffered with 25 mM HEPES supplemented with 10% foetal bovine serum (FBS).Herpes simplex virus type 1 (HSV-1) was isolated from the eye of a patient with dentritic keratitis and maintained in culture.
For viral infection Vero cells (2×10^4/well) were cultured at 37° C. for 2 days in 24 well microplates. The culture medium was replaced with fresh medium containing 2% FBS and the cells infected with HSV-1 (200 μl) at multiplicity of infection (MOI) of 1-3. The cells were further incubated at 37° C. for 3 days. The medium was collected and centrifuged for 5 min in a clinical centrifuge to remove cells and cell debris. The concentration of viral particle was determined as described below and the suspension was aliquoted and kept at −80° C. until used.
Vero cells were inoculated with 10 fold dilutions of HSV-1 and cultured for 2 h at 37° C. The medium was then replaced with fresh DMEM containing 2% FBS and 0.7% methylcellulose and the cells were further incubated for 3 days. The overlayer was then decanted and the cells fixed and stained with crystal violet. Virus induced plaques were manually counted and plaque forming units (PFU/ml) were calculated.
Vero cells were infected with HSV-1 and incubated for four hours. Cells were then further incubated in dark for 1 h without or with Chl-Ser at the indicated concentrations. Cells were then washed three times with medium and immediately illuminated for 10 min. Subsequently the cells were incubated for 3 days for viral multiplication and media collected for quantitation. The appropriate controls described above were included in each experiment.

M2R melanoma cells = assay: PDT effect by clonogenic assay; type: cell-based, mouse
Procedure: The PDT effect was also determined by the clonogenic assay: 24 h after treatment of cells with various Chla-L-Ser-OMe concentrations and completion of the irradiation step, as described above (FIG. 12A), cultures were trypsinized and viable cell numbers determined by trypan blue exclusion. Appropriate dilutions were carried out and 250 cells/well were seeded into 6-well Costar plates. After 11-12 days in culture, the medium was aspirated and the colonies were fixed and stained with crystal violet in methanol and the number of colonies (more than 40 cells per colony) was counted under a dissecting microscope. […] Results are given as means±SD of triplicate determinations.

E.Coli = assay: PDT of bacteria with Chl-Ser, colony counting; type: cell-based, Escherichia Coli
Procedure: (§1) 1. Preincubation: Bacteria or viruses were preincubated in the absence (untreated control) or presence of increasing concentration of photosensitizer for 1-2 h at room temperature or 37° C. in the dark.
(§2) 2. Illumination: One set of untreated control and one set of sensitizer treated samples were exposed to light for 5-10 min. An identical group was kept in the dark (dark control).
(§3) 3. Viability: samples of the controls and experimental groups were subjected for quantitation of survival and viability was calculated as per cent of untreated control.
(§4) The light source for illumination was a 250W halogen lamp. The light was focused on a glass support and filtered to eliminate light below 630 nm. The light intensity at the target level was 1500 μEinstein/cm^2. Illumination for Bchl-Ser against S. aureus was performed as described Example 17 herein.
(§5) Stocks of bacteria (S. aureus, B. subtilis, E. coli) were preserved on solid LB agar slants at 4° C. Two hours prior to the experiment, bacteria were transferred to liquid LB media and grown at 37° C. with continuous shaking. P. Acnes (ATCC-CR 6919) bacteria were grown on agar 1053 reinforced clostridial medium (Oxoid CM 149 ) and incubated at 37° C. […]
(§6) Aliquots (20 or 30 μl) of bacterial suspensions were plated on LB agar plates for 24 h at 37° C. […] Colonies were counted and per cent viability was calculated from untreated control. […]

S. Aureus = type: cell-based, Staphylococcus Aureus
Procedure: as §1, §2, §3, §4, §5, §6

B. Subtilis = type: cell-based, Bacilus Subtilis
Procedure: as §1, §2, §3, §4, §5, §6

[2] = system: Propionibacterium Acnes (under aerobic conditions); type: cell-based
Procedure: as §1, §2, §3, §4
(§7) Stocks of bacteria (S. aureus, B. subtilis, E. coli) were preserved on solid LB agar slants at 4° C. Two hours prior to the experiment, bacteria were transferred to liquid LB media and grown at 37° C. with continuous shaking. P. Acnes (ATCC-CR 6919) bacteria were grown on agar 1053 reinforced clostridial medium (Oxoid CM 149 ) and incubated at 37° C. Culturing was performed in transparent culture jars made anaerobic with a gas generator envelop containing palladium catalyst, (Gas pack Plus Anaerobic system envelopes with Palladium catalyst, Beckton Dickenson Cockesyville Md. 21030 USA) (anaerobic culture) or in the open air (aerobic culture) The bacteria were incubated for 3-4 days before the experiments were carried out.
(§8) Aliquots (20 or 30 μl) of bacterial suspensions were plated on LB agar plates for 24 h at 37° C. ((S. aureus, B. subtilis, E. coli)) or on agar 1053 reinforced clostridial medium (P.acnes). Colonies were counted and per cent viability was calculated from untreated control.
(§9) P. Acnes bacteria at an optical density of A650 nm=0.014 were diluted in PBS to 1:10^−3 and divided into test tubes. Samples of 200 μl were either non treated or incubated with increasing concentration of Chl-Ser. Samples kept in dark were rapped with aluminum foil. All the tubes were placed in the anaerobic jar and incubated for 2 h at 37° C. The anaerobic chamber was placed on the glass support of the light source and samples were illuminated for 5 min. Test tubes with bacteria and sensitizers for the aerobic experiments were left in culture incubator for 2 h and exposed to light for 5 min in the open air. Samples of 20 μl from the anaerobic and aerobic experiments were taken out and spread onto agar plates and culture under anaerobic conditions. After 4 days of anaerobic incubation at 37° C. the colonies formed were counted and per cent viable cells calculated from control. Survival curves were determined based on 6-7 experiments. PDT experiments performed on S. Aureus with Bchl-Ser were conducted as described in Example 17 herein.

[3] = system: Propionibacterium Acnes (under anaerobic conditions); type: cell-based
Procedure: as §1, §2, §3, §4, §7, §8, §9

SMILES: C=Cc1c(C)c2cc3nc(c4c5[n-]c(cc6nc(cc1[n-]2)C(C)=C6CC)c(C)c5C(=O)[C@@H]4C(=O)OC)[C@@H](CCC(=O)OC[C@H](N)C(=O)OC)[C@@H]3C.[Mg+2] [Chla-L-Ser-OMe, L-seryl Methyl Ester Chlorophyllidea]
- concentration of maximal toxicity [1]: ~500 nM
- EC50 ([1]; 1 h with Chl-Ser, illuminated 10 min, read-out: half maximal effect on viral survival): ~150 nM
- effect in the dark ([1]; same concentrations range, dark): no effect in the dark
- number of surviving cells (colonies) without irradiation (M2R melanoma cells; dark): not in the dark
- number of surviving cells (colonies) after PDT (M2R melanoma cells; irradiated, colonies counted after 11-12 days): reduced the number of surviving cells in a dose dependent manner
- concentration up to which phototoxicity could be detected, beyond which toxic in the dark (E.Coli): ~5 µM
- sensitivity to Chl-Ser and light (E.Coli): significant resistance
- effect in dark (S. Aureus): neither light alone nor Chl-Ser in dark showed any effect
- effect in dark (B. Subtilis): neither light alone nor Chl-Ser in dark showed any effect
- colony counts with sensitizer alone in dark [2]: not different from those of untreated samples
- LD50 ([2]; aerobic conditions, light 5 min): 10 nM
- phototoxicity in the presence of light ([2]; concentration range of 0.1 to 1×10^−7M, aerobic): dose dependent phototoxicity
- colony counts with sensitizer alone in dark [3]: not different from those of untreated samples
- LD50 ([3]; anaerobic conditions, light 5 min): 30 nM
- phototoxicity in the presence of light ([3]; concentration range of 0.1 to 1×10^−7M, anaerobic): dose dependent phototoxicity
